In patent US20250144067A1, “PERSONALIZED STARVATION THERAPY FOR CANCER” (Faeth Therapeutics, Inc., priority 2021, published 2025):
Where a name gives a salt, the structure may show the parent alone.

Legend:
[1] = test system: NCI-H292 lung cancer cells; experiment: FDA drug screening, complete media vs cholesterol-free media with simvastatin (TABLE 2); format: cell-based, human; details: for Cholesterol-free media + simvastatin (0.04 μM) / Complete Media: NCI-H292 cells
[2] = test system: NCI-H292 lung cancer cells; experiment: FDA drug screening, complete media vs cholesterol-free media without statin (TABLE 1); format: cell-based, human
[3] = FDA drug library screen, cholesterol-free media with simvastatin 0.04 μM
[4] = FDA drug library screen, complete media
[5] = Complete minus Cholesterol-free, […]
[6] = NCI-H292 cells, cholesterol-free media without statin, FDA drug library screen
[7] = NCI-H292 cells, complete media, FDA drug library screen
[8] = complete media vs cholesterol-free media + simvastatin (0.04 μM), >0 enhanced anti-cancer activity, about 0 neutral, <0 antagonist
[9] = Complete minus Cholesterol-free, greater than 0 enhanced anti-cancer activity, about 0 neutral, below 0 antagonists
[10] = NCI-H292 cells in complete media
[11] = drug in cholesterol-free media with simvastatin 0.04 μM
[12] = Complete minus Cholesterol-free, >0 enhanced anti-cancer activity, about 0 neutral, <0 antagonist
[13] = NCI-H292 cells, cholesterol-free media without statin
[14] = complete media vs cholesterol-free media + simvastatin (0.04 μM), […]
[15] = Complete minus Cholesterol-free, greater than 0 enhanced anti-cancer activity, about 0 neutral, below 0 antagonist
[16] = NCI-H292 cells, FDA drug library screen, cholesterol-free media without statin
[17] = NCI-H292 cells, FDA drug library screen, complete media
[18] = FDA library drug in cholesterol-free media with simvastatin 0.04 μM
[19] = FDA library drug in complete media
[20] = complete media minus cholesterol-free media + simvastatin, >0 enhanced anti-cancer activity, about 0 neutral, <0 antagonist
[21] = complete vs cholesterol-free media, >0 enhanced anti-cancer activity, about 0 neutral, <0 antagonist
[22] = complete vs cholesterol-free media, greater than 0 enhanced anti-cancer activity, about 0 neutral, below 0 antagonists
[23] = complete media minus cholesterol-free media + simvastatin (0.04 μM), >0 enhanced anti-cancer activity, about 0 neutral, <0 antagonist
[24] = cholesterol-free media with simvastatin 0.04 μM, FDA drug library screen (TABLE 2)
[25] = complete media, FDA drug library screen (TABLE 2)
[26] = cholesterol-free media with simvastatin 0.04 μM, cell growth value in FDA drug screen
[27] = complete media, cell growth value in FDA drug screen
[28] = NCI-H292 cells in cholesterol-free media without statin

Molecule: Br.CCN1C[C@]2(OC(=O)c3ccccc3NC(C)=O)CC[C@H](OC)[C@@]34[C@@H]2C[C@@H]([C@@H]13)[C@@]1(O)C[C@H](OC)[C@H]2C[C@@H]4[C@]1(O)[C@H]2OC [Lappaconitine (hydrobromide)]
- Cholesterol-free media + simvastatin (0.04 μM) [1, 3]: 1.123
- Complete Media [1, 4]: 1.322
- Difference ([1]; complete media minus cholesterol-free media + simvastatin, […]): 0.20
- Difference [2, 5]: −0.05
- Cholesterol-free [2, 6]: 1.017
- Complete [2, 7]: 0.9704

Molecule: COc1ccc(Cl)cc1C(=O)NCCc1ccc(S(=O)(=O)NC(=O)NC2CCCCC2)cc1 [Glibenclamide]
- Cholesterol-free media + simvastatin (0.04 μM) [1, 3]: 1.112
- Complete Media [1, 4]: 0.9567
- Difference [1, 8]: −0.16
- Difference [2, 9]: −0.64
- Complete [2, 10]: 0.9798

Molecule: CC1CC(OC(=O)C(O)c2ccccc2)CC(C)(C)C1 (stereo not drawn) [Cyclandelate]
- Cholesterol-free media + simvastatin (0.04 μM) [1, 11]: 1.188
- Complete Media ([1]; drug in complete media): 0.9668
- Difference [1, 8]: −0.22
- Difference [2, 12]: −0.23
- Cholesterol-free [2, 13]: 1.162
- Complete ([2]; NCI-H292 cells, complete media): 0.935

Molecule: Dihydroergotamine (mesylate)
- Complete Media ([1]; drug in complete media): 0.9713
- Difference [1, 14]: −0.18
- Difference [2, 5]: −0.20
- Cholesterol-free [2, 13]: 1.021
- Complete ([2]; NCI-H292 cells, complete media): 0.8213

Molecule: O=C1CCc2ccc(OCCCCN3CCN(c4cccc(Cl)c4Cl)CC3)cc2N1 [Aripiprazole]
- Cholesterol-free media + simvastatin (0.04 μM) [1, 11]: 1.264
- Complete Media ([1]; drug in complete media): 1.028
- Difference [1, 8]: −0.24
- Difference [2, 15]: −0.16
- Cholesterol-free [2, 16]: 0.9968
- Complete [2, 17]: 0.833

Molecule: CC(C)(Oc1ccc(C2CC2(Cl)Cl)cc1)C(=O)O (stereo not drawn) [Ciprofibrate]
- Cholesterol-free media + simvastatin (0.04 μM) [1, 18]: 1.569
- Complete Media [1, 19]: 1.161
- Difference [1, 8]: −0.41
- Difference [2, 15]: −0.11
- Cholesterol-free [2, 16]: 1.09
- Complete [2, 17]: 0.9746

Molecule: Cn1cc(C(=O)[C@@H]2CCc3nc[nH]c3C2)c2ccccc21 [Ramosetron (Hydrochloride)]
- Cholesterol-free media + simvastatin (0.04 μM) [1, 3]: 1.25
- Complete Media [1, 4]: 1.513
- Difference [1, 20]: 0.26
- Difference [2, 12]: 0.03
- Cholesterol-free [2, 6]: 0.9223
- Complete [2, 7]: 0.9545

Molecule: CN(C)C(=O)c1cc2cnc(Nc3ccc(N4CCNCC4)cn3)nc2n1C1CCCC1 [Ribociclib hydrochloride]
- Cholesterol-free media + simvastatin (0.04 μM) [1, 3]: 0.9857
- Complete Media [1, 4]: 0.8306
- Difference [1, 8]: −0.16
- Cholesterol-free [2, 6]: 1.177
- Complete [2, 7]: 1.5
- Difference [2, 21]: 0.32

Molecule: COc1cc2ncnc(Nc3ccc(F)c(Cl)c3)c2cc1OCCCN1CCOCC1 [Gefitinib (hydrochloride)]
- Cholesterol-free media + simvastatin (0.04 μM) [1, 3]: 0.9234
- Complete Media [1, 4]: 0.8455
- Difference [1, 8]: −0.08
- Cholesterol-free [2, 6]: 0.6497
- Complete [2, 7]: 0.8718
- Difference [2, 21]: 0.22

Molecule: Cc1cc(-c2ccccc2)nnc1NCCN1CCOCC1 [Minaprine (dihydrochloride)]
- Cholesterol-free media + simvastatin (0.04 μM) [1, 3]: 0.8439
- Complete Media [1, 4]: 1.278
- Difference [1, 20]: 0.43
- Cholesterol-free [2, 13]: 1.341
- Complete ([2]; NCI-H292 cells, complete media): 0.9021
- Difference [2, 22]: −0.44

Molecule: CC(OC(=O)NCC1(CC(=O)O)CCCCC1)OC(=O)C(C)C (stereo not drawn) [Gabapentin enacarbil]
- Cholesterol-free media + simvastatin (0.04 μM) [1, 3]: 1.032
- Complete Media [1, 4]: 0.9332
- Difference [1, 8]: −0.10
- Difference [2, 15]: −0.14
- Cholesterol-free [2, 16]: 1.017
- Complete [2, 17]: 0.8727

Molecule: CCC(=O)NS(=O)(=O)c1ccc(-c2c(-c3ccccc3)noc2C)cc1 [Parecoxib (Sodium)]
- Cholesterol-free media + simvastatin (0.04 μM) [1, 3]: 2.419
- Difference [1, 23]: −1.17
- Difference [2, 15]: −0.08
- Cholesterol-free [2, 16]: 0.9327
- Complete [2, 17]: 0.8551

Molecule: CCC[C@H](NC(=O)[C@@H]1[C@H]2CCC[C@H]2CN1C(=O)[C@@H](NC(=O)[C@@H](NC(=O)c1cnccn1)C1CCCCC1)C(C)(C)C)C(=O)C(=O)NC1CC1 [Telaprevir]
- Cholesterol-free media + simvastatin (0.04 μM) [1, 3]: 1.084
- Complete Media [1, 4]: 0.9529
- Difference [1, 14]: −0.13
- Cholesterol-free [2, 13]: 1.55
- Complete ([2]; NCI-H292 cells, complete media): 1.165
- Difference ([2]; complete vs cholesterol-free media, […]): −0.39

Molecule: N#Cc1nn(-c2c(Cl)cc(C(F)(F)F)cc2Cl)c(N)c1[S+]([O-])C(F)(F)F (stereo not drawn) [Fipronil]
- Cholesterol-free media + simvastatin (0.04 μM) [1, 24]: 1.235
- Complete Media [1, 25]: 1.184
- Difference ([1]; complete media minus cholesterol-free media + simvastatin (0.04 μM), […]): −0.05
- Difference [2, 5]: −0.22
- Cholesterol-free [2, 13]: 1.217
- Complete ([2]; NCI-H292 cells, complete media): 1

Molecule: COc1ccccc1Oc1c(NS(=O)(=O)c2ccc(C(C)(C)C)cc2)nc(-c2ncccn2)nc1OCCO [Bosentan (hydrate)]
- Cholesterol-free media + simvastatin (0.04 μM) [1, 24]: 1.256
- Complete Media [1, 25]: 1.269
- Difference [1, 23]: 0.01
- Difference [2, 15]: −0.13
- Cholesterol-free [2, 16]: 1.31
- Complete [2, 17]: 1.181

Molecule: FC(F)(F)c1ccc(CNc2ccc(Cc3c[nH]c4ncc(Cl)cc34)cn2)cn1 [Pexidartinib (hydrochloride)]
- Cholesterol-free media + simvastatin (0.04 μM) [1, 3]: 1.136
- Complete Media [1, 4]: 1.002
- Difference [1, 8]: −0.13
- Cholesterol-free [2, 13]: 1.204
- Complete ([2]; NCI-H292 cells, complete media): 0.7514
- Difference [2, 22]: −0.45

Molecule: CCOC(=O)C(C)(C)Oc1ccc(Cl)cc1 [Clofibrate]
- Cholesterol-free media + simvastatin (0.04 μM) [1, 3]: 1.786
- Complete Media [1, 4]: 1.654
- Difference [1, 8]: −0.13
- Difference [2, 15]: −0.12
- Cholesterol-free [2, 16]: 1.138
- Complete [2, 17]: 1.018

Molecule: CC(C)Cc1ccc(C(C)C(=O)O)cc1 (stereo not drawn) [Ibuprofen]
- Cholesterol-free media + simvastatin (0.04 μM) [1, 18]: 1.512
- Difference [1, 8]: −0.36
- Cholesterol-free [2, 13]: 1.419
- Complete ([2]; NCI-H292 cells, complete media): 1.058
- Difference [2, 22]: −0.36

Molecule: CCS(=O)(=O)CCn1c([N+](=O)[O-])cnc1C [Tinidazole]
- Cholesterol-free media + simvastatin (0.04 μM) [1, 11]: 0.8398
- Complete Media ([1]; drug in complete media): 0.6611
- Difference [1, 8]: −0.18
- Difference [2, 15]: −0.13
- Cholesterol-free [2, 16]: 1.121
- Complete [2, 17]: 0.9876

Molecule: Hydrocortisone hemisuccinate
- Cholesterol-free media + simvastatin (0.04 μM) [1, 26]: 0.9423
- Complete Media [1, 27]: 1.019
- Difference [1, 20]: 0.08
- Difference [2, 9]: −0.57
- Complete [2, 10]: 0.5102

Molecule: COc1cc(O)c(C(=O)Nc2nc(C(=O)NCCN(C(C)C)C(C)C)cs2)cc1OC
- Cholesterol-free media + simvastatin (0.04 μM) [1, 11]: 1.16
- Complete Media ([1]; drug in complete media): 0.9105
- Difference [1, 8]: −0.25
- Difference [2, 9]: −0.47
- Cholesterol-free [2, 28]: 1.419
- Complete [2, 10]: 0.9453

Molecule: COc1cc2c(cc1OC)[C@@H]1Cc3ccc(OC)c(OC)c3CN1CC2 [Rotundine]
- Cholesterol-free media + simvastatin (0.04 μM) [1, 18]: 1.094
- Complete Media [1, 19]: 0.8277
- Difference [1, 8]: −0.27
- Difference [2, 12]: −0.21
- Cholesterol-free [2, 13]: 1.07
- Complete ([2]; NCI-H292 cells, complete media): 0.8588

Molecule: O=S(=O)(O)Oc1ccc(C(c2ccc(OS(=O)(=O)O)cc2)c2ccccn2)cc1 [Sodium Picosulfate]
- Cholesterol-free media + simvastatin (0.04 μM) [1, 3]: 0.987
- Complete Media [1, 4]: 1.164
- Difference [1, 20]: 0.18
- Cholesterol-free [2, 13]: 1.414
- Complete ([2]; NCI-H292 cells, complete media): 1.043
- Difference [2, 22]: −0.37

Molecule: CC[C@H](C)C(=O)O[C@H]1C[C@H](O)C=C2C=C[C@H](C)[C@H](CC[C@@H](O)C[C@@H](O)CC(=O)[O-])[C@H]21.[Na+] [Pravastatin (sodium)]
- Cholesterol-free media + simvastatin (0.04 μM) [1, 26]: 1.193
- Complete Media [1, 27]: 1.235
- Difference [1, 20]: 0.04
- Difference [2, 9]: −0.48
- Cholesterol-free [2, 28]: 1.713
- Complete [2, 10]: 1.238

Molecule: CC(=O)CC(c1ccc([N+](=O)[O-])cc1)c1c(O)c2ccccc2oc1=O (stereo not drawn) [Acenocoumarol]
- Cholesterol-free media + simvastatin (0.04 μM) [1, 3]: 2.014
- Difference [1, 23]: −0.90
- Difference [2, 12]: −0.28
- Cholesterol-free [2, 13]: 1.889
- Complete ([2]; NCI-H292 cells, complete media): 1.605

Molecule: CN(C)CCCN1c2ccccc2CCc2ccc(Cl)cc21 [Clomipramine (hydrochloride)]
- Cholesterol-free media + simvastatin (0.04 μM) [1, 26]: 0.9105
- Complete Media [1, 27]: 1.028
- Difference [1, 20]: 0.12
- Difference [2, 9]: −0.54
- Cholesterol-free [2, 28]: 1.47
- Complete [2, 10]: 0.9281

Molecule: [H]/N=C(\N/C(=N/[H])NCCCCCCNC(=N)NC(=N)Nc1ccc(Cl)cc1)Nc1ccc(Cl)cc1 [Chlorhexidine]
- Cholesterol-free media + simvastatin (0.04 μM) [1, 24]: 0.6176
- Complete Media [1, 25]: 0.5919
- Difference [1, 23]: −0.03
- Difference [2, 12]: 0.04
- Cholesterol-free [2, 6]: 0.0819
- Complete [2, 7]: 0.1259

Molecule: CCOC(=O)[C@H](C)C[C@@H](Cc1ccc(-c2ccccc2)cc1)NC(=O)CCC(=O)O [Sacubitril]
- Cholesterol-free media + simvastatin (0.04 μM) [1, 26]: 1.492
- Complete Media [1, 27]: 1.622
- Difference [1, 20]: 0.13
- Difference [2, 12]: −0.30
- Cholesterol-free [2, 13]: 1.009
- Complete ([2]; NCI-H292 cells, complete media): 0.7049
